Source: patent US20070134156A1, “Fatigue evaluation apparatus, fatigue evaluation method, and application thereof” (SOIKEN INC., priority 2004, published 2007)

Assay: Four hours of driving-simulator combined fatigue loading after intake of tryptophan; concentration of tryptophan in plasma
Format: in vivo, human
Excerpt: Twelve healthy males who were in their twenties served as subjects. Each of the subjects was right-handed, had at least one year of experience as a licensed driver, and drove an ordinary motor vehicle at least once a week. Further, patients with sinus problems, smokers, users of drugs (such as caffeinated or spiced food products and anti-allergic drugs, which affect a central nervous system) were excluded.
The subject was subjected to driving work loading by using a driving simulator (ACCESS MASTER AM2330 manufactured by Tasknet Inc.).
In order to study an effect of tryptophan on fatigue, each of the subjects in a tryptophan group who received tryptophan before loading was subjected to four hours of simulator driving without a break, and each of the subjects in a placebo group who received a placebo before loading was subjected to four hours of simulator driving without a break. The same subject received 5 mg/kg of tryptophan or a placebo at least one week apart, and participated in the experiment.
Blood sample was taken from the subjects according to the experimental schedule shown in Table 4 so as to measure concentrations of amino acids in their plasma.

N[C@@H](Cc1c[nH]c2ccccc12)C(=O)O [tryptophan]
concentration at 4 h (male, human, plasma, oral, tryptophan group, 5 mg/kg tryptophan taken before loading, after four hours of simulator driving, healthy males): 39 µM | concentration of tryptophan in plasma before fatigue loading (tryptophan group (5 mg/kg tryptophan), blood sampled before intake and before four hours of simulator driving, healthy males): 43 µM | change in concentration of tryptophan in plasma between before and after fatigue loading (tryptophan group, 5 mg/kg before loading, four hours of simulator driving, placebo group showed a significant decrease): no significant decrease
